35 molecules from patent US20080045535A1, “Prokineticin 2 receptor antagonists” (priority 2005, published 2008) can be followed below.

Where “and” joins values, the source holds several entries; their conditions need not be identical. Equal entries are not always repeated.

The assay addresses T1, HEK 293 GPR73 (prokineticin 1 receptor) expressing cells (Homo sapiens, UniProt Q8TCW9).
T1 construct: expressed in transfected cells; host or cells: HEK 293
In words: PK1 functional assay: screening for PK1 antagonists on the FLIPR (calcium fluorescence). The class given is cell-based. The conditions noted are these: HEK 293 GPR73 cells; for IC50: PK1 ligand at EC50, multiple values = repeat tests, read-out: Ca^2+ Mobilization IC50; for Ca^2+ Mobilization % Inh @10 μM: compound at 10 μM; for Ca^2+ Mobilization % Inh @10 μM / inhibition at 10 µM: multiple values = repeat tests; for inhibition at 10 µM: HEK293, compound at 10 μM, read-out: Ca^2+ Mobilization % Inh @10 μM. How it is done:
At a time of 24 h prior to running the assay, in cell culture media (DMEM containing high Glucose and L-glutamine, 10% FBS, 1% Pen/Streptomycin, 1% Sodium Pyruvate, 20 mM HEPES, Zeocin 200 mg/L), 100 μL of 1.3*10^6/ml HEK 293 GPR73 (prokineticin 1 receptor) expressing cells were plated in a 96 well poly-d-lysine coated plate (Costar), and incubated at 37 C and 5% CO2. On the day in which the assay was run, the media was removed and 200 μL of 5× Calcium Plus Dye (Molecular Devices) which was previously resuspended with 200 mL of assay buffer [HBSS w/Ca^2+ and Mg^2+ w/o phenol red, 20 mM HEPES, 0.1% BSA, 10 mL probenecid (710 mg probenecid in 5 mL of 1N NaOH, to which was then added 5 mL HBSS containing 20 mM HEPES)] was added to each well of the 96-well plate. The plate was incubated at 37 C and 5% CO2 for 30 min in dark. The plate was removed and allowed to reach RT for 15 min in the dark. The assay was then run on the FLIPR. […] Baseline is described as the amount of relative fluorescence read when buffer alone is added to cells. Baseline was subtracted from all wells. Percent of control was calculated as follows:
(Baseline subtracted well value is divided by baseline subtracted max value)*100.
Percent inhibition is 100 minus the percent of control value.
IC50 values were calculated using GraphPad Prism.
Table 2 includes data generated from the PK1 functional assay described in Example 2.

T1 sequence (Q8TCW9 whole entry): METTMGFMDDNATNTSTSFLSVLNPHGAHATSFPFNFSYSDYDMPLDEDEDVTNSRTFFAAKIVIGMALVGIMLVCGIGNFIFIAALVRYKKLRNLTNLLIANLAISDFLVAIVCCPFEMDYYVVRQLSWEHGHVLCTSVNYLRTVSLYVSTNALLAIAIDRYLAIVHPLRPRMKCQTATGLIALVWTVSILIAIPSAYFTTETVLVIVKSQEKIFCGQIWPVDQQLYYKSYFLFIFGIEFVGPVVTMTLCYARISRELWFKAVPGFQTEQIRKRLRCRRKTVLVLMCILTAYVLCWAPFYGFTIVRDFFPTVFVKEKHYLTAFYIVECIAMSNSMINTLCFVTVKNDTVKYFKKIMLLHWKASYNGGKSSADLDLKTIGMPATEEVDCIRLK

As a reminder, the IC50 is the midpoint of a concentration-inhibition curve. Take `COc1ccc(Cn2c(NCCN(C(=N)N)c3ccc(C#N)cc3)nc(=O)n(Cc3ccc(F)cc3)c2=O)cc1` [Cpd 90, N-(4-Cyano-phenyl)-N-{2-[5-(4-fluoro-benzyl)-1-(4-methoxy-benzyl)-4,6-dioxo-1,4,5,6-tetrahydro-[1,3,5]triazin-2-ylamino]-ethyl}-guanidine]: the IC50 was 31 nM and 43 nM. Besides, the “Ca^2+ Mobilization % Inh @10 μM” value (10 µM) is 100% and 101%.

For the molecule `COc1ccc(Cn2c(NCCNC(=N)Nc3ccc([N+](=O)[O-])cc3)nc(=O)n(Cc3ccc(F)cc3)c2=O)cc1` [Cpd 91], the inhibition at 10 µM stood at 101% and the 50% inhibitory concentration (IC50) amounted to 54 nM.

Take `COc1ccc(Cn2c(NCCNC(=N)Nc3ccc4c(c3)OCO4)nc(=O)n(Cc3ccc(F)cc3)c2=O)cc1` [Cpd 92]: the inhibition at 10 µM was found to be 97% and the IC50 stood at 40 nM.

Regarding `COc1ccc(Cn2c(NCCNC(=N)NN)nc(=O)n(Cc3ccc(F)cc3)c2=O)cc1` [Cpd 93, N-{2-[5-(4-Fluoro-benzyl)-1-(4-methoxy-benzyl)-4,6-dioxo-1,4,5,6-tetrahydro-[1,3,5]triazin-2-ylamino]-ethyl}-AN-amino-guanidine], the inhibition at 10 µM is 92% and the IC50 stood at 227 nM.

As to `COc1ccc(Cn2c(NCCNC(=N)N)nc(=O)n(Cc3cccc([N+](=O)[O-])c3)c2=O)cc1` [Cpd 94], the inhibition at 10 µM stood at 60% and the IC50 was 4800 nM.

Turning to `COc1ccc(Cn2c(NCCNC(=N)N)nc(=O)n(Cc3ccc([N+](=O)[O-])cc3)c2=O)cc1` [Cpd 95, N-{2-[1-(4-Methoxy-benzyl)-5-(4-nitro-benzyl)-4,6-dioxo-1,4,5,6-tetrahydro-[1,3,5]triazin-2-ylamino]-ethyl}-guanidine], the inhibition at 10 µM was found to be 96% and the IC50 turned out to be 84 nM.

Turning to `COc1ccc(Cn2c(NCCNC(=N)N)nc(=O)n(Cc3cccc(N)c3)c2=O)cc1` [Cpd 96], the inhibition at 10 µM was determined as 43% and the IC50 is > 10000 nM.

On to `COc1ccc(Cn2c(NCCNC(=N)N)nc(=O)n(Cc3ccc(C#N)cc3)c2=O)cc1` [Cpd 97], for which the inhibition at 10 µM was determined as 86% and the IC50 was determined as 318 nM.

Consider `COc1ccc(Cn2c(NCCNC(=N)N)nc(=O)n(Cc3cccc(C#N)c3)c2=O)cc1` [Cpd 98], for which the inhibition at 10 µM amounted to 34% and the IC50 was > 10000 nM.

As for `[H]/N=C(\N)NCCNc1nc(=O)n(Cc2ccc(C(=O)OC)cc2)c(=O)n1Cc1ccc(OC)cc1` [Cpd 99], the inhibition at 10 µM worked out at 73% and the IC50 worked out at 794 nM.

Consider `COC(=O)c1cccc(Cn2c(=O)nc(NCCNC(=N)N)n(Cc3ccc(OC)cc3)c2=O)c1` [Cpd 100], for which the inhibition at 10 µM was determined as 48% and the IC50 is 8820 nM.

As to `COc1ccc(Cn2c(NCCNC(=N)N)nc(=O)n(Cc3ccc(C(=O)O)cc3)c2=O)cc1` [Cpd 101, 4-[4-(2-Guanidino-ethylamino)-3-(4-methoxy-benzyl)-2,6-dioxo-3,6-dihydro-2H-[1,3,5]triazin-1-ylmethyl]-benzoic acid], the inhibition at 10 µM was determined as 33% and the IC50 is > 10000 nM.

As to `COc1ccc(Cn2c(NCC(C)(C)NC(=N)N)nc(=O)n(Cc3ccc(Cl)c(Cl)c3)c2=O)cc1` [Cpd 102], the inhibition at 10 µM came to 68% and the IC50 turned out to be 3490 nM.

Consider `COc1ccc(Cn2c(NCCNC(=N)Nc3ccc(Br)cc3)nc(=O)n(Cc3ccc(F)cc3)c2=O)cc1` [Cpd 103], for which the inhibition at 10 µM is 99% and the concentration for half-maximal inhibition (IC50) amounted to 23 nM.

As to `COc1ccc(Cn2c(NCCN(C(=N)N)c3ccccn3)nc(=O)n(Cc3ccc(F)cc3)c2=O)cc1` [Cpd 104, N-{2-[5-(4-Fluoro-benzyl)-1-(4-methoxy-benzyl)-4,6-dioxo-1,4,5,6-tetrahydro-[1,3,5]triazin-2-ylamino]-ethyl}-N-pyridin-2-yl-guanidine], the IC50 came out at 11 nM. In addition, the “Ca^2+ Mobilization % Inh @10 μM” value (10 µM) was 99% and 102%.

On to `COc1ccc(Cn2c(NCCNC(=N)NCCc3ccccn3)nc(=O)n(Cc3ccc(F)cc3)c2=O)cc1` [Cpd 105], for which the IC50 came to 89 nM and the “Ca^2+ Mobilization % Inh @10 μM” value is given as 100%.

Regarding `CCOC(=O)c1ccc(NC(=N)NCCNc2nc(=O)n(Cc3ccc(F)cc3)c(=O)n2Cc2ccc(OC)cc2)cc1` [Cpd 106], the inhibition at 10 µM was found to be 89% and the IC50 stood at 508 nM.

Turning to `COc1ccc(Cn2c(NCCNC(=N)Nc3ccc(F)cc3F)nc(=O)n(Cc3ccc(F)cc3)c2=O)cc1` [Cpd 107], the inhibition at 10 µM was found to be 101% and the IC50 came to 12 nM.

In the case of `CCCCCCCCCCNC(=N)NCCNc1nc(=O)n(Cc2ccc(F)cc2)c(=O)n1Cc1ccc(OC)cc1` [Cpd 108], the inhibition at 10 µM is 89% and the half-inhibitory concentration (IC50) was 369 nM.

`COc1ccc(Cn2c(NCCNC(=N)N)nc(=O)n(Cc3ccc(OC(C)(C)C)cc3)c2=O)cc1` [Cpd 109]: the IC50 turned out to be 129 nM and the “Ca^2+ Mobilization % Inh @10 μM” value was determined as 99%.

As for `COc1ccc(Cn2c(NCCNC(=N)N)nc(=O)n(Cc3ccc(O)cc3)c2=O)cc1` [Cpd 110, N-{2-[5-(4-Hydroxy-benzyl)-1-(4-methoxy-benzyl)-4,6-dioxo-1,4,5,6-tetrahydro-[1,3,5]triazin-2-ylamino]-ethyl}-guanidine], the inhibition at 10 µM was found to be 81% and the half-inhibitory concentration (IC50) turned out to be 1160 nM.

Take `COc1ccc(Cn2c(NCCNC(=N)N)nc(=O)n(Cc3csc(Cl)n3)c2=O)cc1` [Cpd 111]: the inhibition at 10 µM was 100% and the IC50 was determined as 154 nM.

As for `COc1ccc(Cn2c(NCCNC(=N)N)nc(=O)n(Cc3cc4ccccc4o3)c2=O)cc1` [Cpd 112], the inhibition at 10 µM was determined as 101% and the half-maximal inhibitory concentration (IC50) worked out at 26 nM.

Consider `COc1ccc(Cn2c(NCCN(C)C(=N)N)nc(=O)n(Cc3ccc(Cl)c(Cl)c3)c2=O)cc1` [Cpd 113], for which the inhibition at 10 µM amounted to 101%; the half-maximal inhibitory concentration (IC50) is 11 nM and 24 nM and 46 nM and 76 nM. Further, the “Ca^2+ Mobilization % Inh @10 μM” value (10 µM) was 100% and 102%.

With `COc1ccc(Cn2c(NCCNC(=N)NCC(F)(F)F)nc(=O)n(Cc3ccc(F)cc3)c2=O)cc1` [Cpd 114], the inhibition at 10 µM is 99% and the concentration for half-maximal inhibition (IC50) stood at 41 nM.

For `COCCCNC(=N)NCCNc1nc(=O)n(Cc2ccc(F)cc2)c(=O)n1Cc1ccc(OC)cc1` [Cpd 115], the inhibition at 10 µM is 99% and the IC50 came to 47 nM.

`COc1ccc(Cn2c(NCCNC(=N)N3CCCCC3)nc(=O)n(Cc3ccc(F)cc3)c2=O)cc1` [Cpd 116]: the inhibition at 10 µM amounted to 99% and the half-maximal inhibitory concentration (IC50) came out at 57 nM.

`COc1ccc(Cn2c(NCCNC(=N)N(C)c3ccccc3)nc(=O)n(Cc3ccc(F)cc3)c2=O)cc1` [Cpd 117]: the inhibition at 10 µM worked out at 79% and the IC50 amounted to 84 nM.

`COc1ccc(Cn2c(NCCN(C(=N)N)c3ccccc3F)nc(=O)n(Cc3ccc(F)cc3)c2=O)cc1` [Cpd 118, N-{2-[5-(4-Fluoro-benzyl)-1-(4-methoxy-benzyl)-4,6-dioxo-1,4,5,6-tetrahydro-[1,3,5]triazin-2-ylamino]-ethyl}-N-(2-fluoro-phenyl)-guanidine]: the half-maximal inhibitory concentration (IC50) came to 6 nM. Further, the “Ca^2+ Mobilization % Inh @10 μM” value (10 µM) is 98% and 102%.

Regarding `COc1ccc(Cn2c(NCCNC(=N)Nc3ccc(F)cc3)nc(=O)n(Cc3ccc(F)cc3)c2=O)cc1` [Cpd 119, N-{2-[5-(4-Fluoro-benzyl)-1-(4-methoxy-benzyl)-4,6-dioxo-1,4,5,6-tetrahydro-[1,3,5]triazin-2-ylamino]-ethyl}-N′-(4-fluoro-phenyl)-guanidine], the inhibition at 10 µM was determined as 102%; the half-inhibitory concentration (IC50) was 6 nM and 12 nM. In addition, under “10 µM”, the “Ca^2+ Mobilization % Inh @10 μM” value came to 99%.

For the molecule `COc1ccc(Cn2c(NCCNC(=N)Nc3ccc(C)cc3)nc(=O)n(Cc3ccc(F)cc3)c2=O)cc1` [Cpd 120], the inhibition at 10 µM stood at 100%; the IC50 is 9 nM and 15 nM. The “Ca^2+ Mobilization % Inh @10 μM” value (10 µM) was 102%.

`COc1ccc(Cn2c(NCCNC(=N)NC(C)(C)C)nc(=O)n(Cc3ccc(F)cc3)c2=O)cc1` [Cpd 121]: the inhibition at 10 µM turned out to be 101%; the concentration for half-maximal inhibition (IC50) was 20 nM and 33 nM. Besides, for the setting “10 µM”, the “Ca^2+ Mobilization % Inh @10 μM” value worked out at 98%.

In the case of `N=C(N)NCCNc1nc(=O)n(Cc2ccc(Cl)cc2)c(=O)n1Cc1ccc(N)cc1` [Cpd 122, N-{2-[1-(4-Amino-benzyl)-5-(4-chloro-benzyl)-4,6-dioxo-1,4,5,6-tetrahydro-[1,3,5]triazin-2-ylamino]-ethyl}-guanidine], the inhibition at 10 µM was 78% and the IC50 came out at 1080 nM.

Take `COc1ccc(Cn2c(NCCNC(=N)N)nc(=O)n(CC(C)(C)C)c2=O)cc1` [Cpd 123]: the inhibition at 10 µM amounted to 34% and the IC50 is > 10000 nM.

For the molecule `COc1ccc(Cn2c(NCCNC(=N)N)nc(=O)n(CC3CCCC3)c2=O)cc1` [Cpd 124], the inhibition at 10 µM came out at 74% and the concentration for half-maximal inhibition (IC50) came to 1560 nM.
